pIC50: −log10 of the molar value. Inconclusive results are not listed. Calls of active or inactive are those of the source. The rule behind the calls is not given here. A value given as a limit tells only on which side of the number the result lay.

One may read the pIC50 as the negative decadic logarithm of the IC50, by convention in mol/L. By IC50 is commonly meant the concentration that gives 50% inhibition.

This assay relates to Mycobacterium tuberculosis non-replicating, growth inhibition. The experiment in a line: growth inhibition of non-replicating M. tuberculosis (AID 488890).
Regarding `O=C(Nc1c(F)cc(F)cc1Br)c1cc(-c2ccccc2)on1`, the pIC50 is 5.20.

With `Cc1cc(C)n(-c2ccc3cccc(NS(C)(=O)=O)c3n2)n1`, the pIC50 is 5.31.

For `Cc1cc(Br)ccc1OCCCCN1CCC(C)CC1`, the pIC50 was 5.02.

In the case of `COc1ccc(-c2noc(CCC(=O)Nc3cccc(C)c3)n2)cc1`, the IC50 is 11.5 µM (inactive).

With `O=C(Nc1ccc([N+](=O)[O-])cc1)C1COc2ccccc2O1` (stereo unspecified), the IC50 was 10.2 µM (inactive).

Turning to `Clc1ccc(Cc2nnc(-c3cccs3)o2)cc1`, the pIC50 was over 7.00.

For the compound `O=C(N/N=C/c1c(O)ccc2ccccc12)c1ccc(Br)o1`, the pIC50 was over 7.00.

On to `Cc1ccc(NC(=O)COc2ccccc2CNC(C)(C)CC(C)(C)C)cc1`, for which the IC50 is 16.5 µM (inactive).

Consider `Clc1cccc(CNCCNCc2cccc(Cl)c2)c1`, for which the IC50 is 12.1 µM (inactive).

As for `Cc1nnc(SCCC(=O)Nc2ccc(Cl)cc2)o1`, the IC50 is 39.2 µM (inactive).

As for `Cc1cccnc1NC(=O)COc1ccc2oc3c(c2c1)CCCC3`, the pIC50 is 5.03.

For `Cc1[nH]n(-c2cccc(Cl)c2)c(=O)c1/C=N/n1c(C)nc2ccccc2c1=O`, the IC50 is 19.5 µM (inactive).

In the case of `COc1ccc(C(CCNCc2ccccc2)c2ccc(F)cc2)cc1` (stereo unspecified), the pIC50 was 5.06.

In the case of `O=C(NC1CCCC1)c1cc(-c2cccs2)on1`, the pIC50 was 5.25.

Take `C[C@@H]1CN=C2N(CCNC(=O)CCC3CCCCC3)[C@H](Cc3ccc(O)cc3)CN21`: the IC50 was 18.9 µM (inactive).

Turning to `O=C(Nc1cccc(Cl)c1)C1COc2ccccc2O1` (stereo unspecified), the pIC50 was 5.10.

With `Cc1cccc(C)c1N1C(=O)CC(N2CCSCC2)C1=O` (stereo unspecified), the pIC50 is 5.46.

As to `Cc1nnc(N/N=C/c2ccc(Br)cc2)n1N`, the pIC50 was 5.89.

Consider `COc1cccc(-c2nnc(NC(=O)c3ccc(S(=O)(=O)N(CC(C)C)CC(C)C)cc3)o2)c1`, for which the IC50 was 13.7 µM (inactive).

Regarding `CCOC(=O)COn1c2c(c3c4no[n+]([O-])c4ccc31)CCCC2`, the pIC50 is 5.95.

`Brc1ccc(CSc2nnc(-c3ccco3)o2)cc1`: the pIC50 is 6.55.

Turning to `CCOC(=O)CNC(=O)N1c2ccccc2Sc2ccccc21`, the pIC50 is 5.32.

In the case of `Cc1ccc(NC(=O)C2CC2c2ccccc2)cc1` (stereo unspecified), the IC50 was 15 µM (inactive).

On to `CC1CC(C)CN(C(=O)COC(=O)c2ccc([N+](=O)[O-])o2)C1` (stereo unspecified), for which the pIC50 is 5.29.

As to `Cc1ccc(S(=O)(=O)CCC(=O)Nc2nc(-c3ccncc3)cs2)cc1`, the IC50 was 14.6 µM (inactive).

With `Cc1cccc(/C=C/c2onc(C)c2[N+](=O)[O-])n1`, the IC50 is 15 µM (inactive).

With `O=C(CCSc1ccc(Cl)cc1)Nc1cccnc1`, the IC50 is > 50 µM (inactive).

Turning to `COc1cc(C(=O)CCN2CCC(c3ccccc3)C2)cc(OC)c1OC` (stereo unspecified), the pIC50 was 5.19.

Regarding `Cc1ccc(OCCCCn2ccnc2)c([N+](=O)[O-])c1`, the IC50 is 28.5 µM (inactive).

Turning to `CCCCN1C(=O)C2(NNc3ccccc3O2)c2ccccc21` (stereo unspecified), the pIC50 is 5.33.

As to `CS(=O)(=O)Cc1nc2ccccc2oc1=O`, the pIC50 is 5.50.

For `COc1cc(CNCCc2c[nH]c3ccccc23)ccc1OCc1ccc(F)cc1`, the IC50 is 11.5 µM (inactive).

Consider `CCOCC(=O)Nc1nc2ccc(C)cc2s1`, for which the pIC50 was 5.69.

As for `CC1CCCN(CCSc2ccc(Cl)cc2)C1` (stereo unspecified), the pIC50 is 5.29.

Regarding `O=C(OCn1nnc2ccccc2c1=O)c1cccs1`, the IC50 was 12.4 µM (inactive).

In the case of `O=c1c2ccccc2sn1-c1ccccc1`, the pIC50 was 5.17.

As to `N#CC(C(=O)NCc1ccco1)c1nc2ccccc2nc1N1CCOCC1` (stereo unspecified), the IC50 is 15.9 µM (inactive).

For the compound `Clc1ccc(SCCOCCN2CCc3ccccc3C2)cc1`, the IC50 is 13.5 µM (inactive).

Regarding `O=C(COc1ccc2ccccc2c1)N1CCCC1`, the IC50 is 14.7 µM (inactive).

In the case of `O=C(NNc1nc2ccccc2s1)Nc1ccc(F)cc1`, the IC50 was 14.4 µM (inactive).

Regarding `Cc1cc(OCCCCn2ccnc2)cc(C)c1Cl`, the pIC50 was 5.33.

For the compound `CC(C)OC(=O)C(C)Oc1ccc(C(=O)NCCc2ccccc2)cc1` (stereo unspecified), the IC50 was 11.6 µM (inactive).

`O=S(=O)(Nc1ccc(O)c2ccccc12)c1ccc(F)cc1`: the pIC50 is 5.19.

Regarding `CN(C)CC(C(=O)c1ccccc1)c1ccccc1` (stereo unspecified), the pIC50 was 5.55.

Take `O=C1CC(N2CCN(Cc3ccccc3)CC2)C(=O)N1CCc1ccccc1` (stereo unspecified): the IC50 is 22.3 µM (inactive).

Consider `COc1ccccc1NC(=O)c1ccc([N+](=O)[O-])o1`, for which the pIC50 is 5.95.

As for `COc1ccccc1C1=NOC(COC(=O)c2ccc([N+](=O)[O-])cc2)C1` (stereo unspecified), the IC50 was 18.8 µM (inactive).

On to `Cc1ccc2nc(C)c3c(c2c1)SCC3`, for which the IC50 was 11.6 µM (inactive).

As for `N=c1oc2ccc(Cl)cc2cc1C(=O)NC1CCCCCC1`, the IC50 was 11.6 µM (inactive).

As for `CCOC(=O)Cn1cc(C#N)c2ccccc21`, the pIC50 is 5.21.

In the case of `Cc1cc(C)cc(NC(=O)COC(=O)CC2CCCC2)c1`, the IC50 is 21.5 µM (inactive).

Take `CN(C)CCCn1c(=O)n(C2CCCCC2)c(=O)c2c3c(sc21)CCCCC3`: the IC50 was 20.7 µM (inactive).

Turning to `CSc1ccc(C(=O)C2CCCN(C(=O)c3ccc4c(c3)no[n+]4[O-])C2)cc1` (stereo unspecified), the pIC50 is 5.39.

On to `COc1ccc(NC(=O)c2ccc(COCC(F)(F)C(F)F)cc2)cc1`, for which the IC50 was 12.6 µM (inactive).

As for `CCCCn1nnc(NC(=O)COc2ccc(Cl)c(C)c2)n1`, the pIC50 is 5.12.

Turning to `OC(COc1ccc2ccccc2c1Br)Cn1ccnc1` (stereo unspecified), the IC50 was 33 µM (inactive).

As to `CCCCN(CC)S(=O)(=O)c1ccc(C(=O)Nc2nnc(-c3cccs3)o2)cc1`, the IC50 is 11.3 µM (inactive).

Turning to `Cc1cccnc1NC(=O)C1COc2ccccc2O1` (stereo unspecified), the IC50 is 29.6 µM (inactive).

For the compound `Cc1ccc(C(=O)OCC(=O)N2CCCCCC2)c(O)c1`, the pIC50 was 5.05.

As for `N#CC1=C(c2ccccc2)/C(=C/c2ccccc2)OC1=O`, the pIC50 is 5.55.

Turning to `CSCCC(=O)N1CCCC(N2CCN(c3cccc(C(F)(F)F)c3)CC2)C1` (stereo unspecified), the IC50 was 34.4 µM (inactive).

Consider `Cc1ccccc1OCC(=O)OCC(=O)c1ccc[nH]1`, for which the IC50 is 21.2 µM (inactive).

`COc1ccccc1-c1nnc(-c2ccc(C)cc2)o1`: the pIC50 was 5.19.

With `O=C(Nc1ncccn1)c1ccc([N+](=O)[O-])o1`, the pIC50 is 5.07.

In the case of `COc1ccc(OC)c(N2C(=O)NC(=O)/C(=C/c3ccc([N+](=O)[O-])s3)C2=O)c1`, the IC50 was 25.5 µM (inactive).

With `CC(C)c1ccc2[nH]c3c(c2c1)CCC/C3=N\NC(=O)c1ccncc1`, the pIC50 is 5.06.

Consider `CCOC(=O)c1c(NC(=O)C2COc3ccccc3O2)sc2c1CC(C)(C)NC2(C)C` (stereo unspecified), for which the IC50 is 18.3 µM (inactive).

For the compound `COc1ccc(/C=C/c2nc3ccccc3c(=O)o2)cc1`, the pIC50 was 5.56.

Consider `COc1cc(C=O)ccc1OCCCCOc1ccccc1[N+](=O)[O-]`, for which the IC50 is 27.6 µM (inactive).

With `Clc1ccccc1CSc1nnc([C@@H]2CCCN2)o1`, the IC50 was 12.2 µM (inactive).

`Cc1ccc(Sc2ccc(C=C3C(=O)N(C)C(=O)N(C)C3=O)o2)cc1`: the negative logarithm of the IC50 (pIC50) was 5.52.

Take `CC(C)CCNCC(O)CON=C1c2ccccc2-c2ccccc21` (stereo unspecified): the pIC50 was 5.03.

For `COc1ccc(C(=O)COC(=O)c2ccccc2O)c(OC)c1`, the pIC50 was 5.84.

Regarding `CC1CCN(CCOCCSc2ccc(Cl)cc2)CC1`, the IC50 was 19.7 µM (inactive).

Consider `Cc1nnc(N/N=C/c2ccc(-c3ccccc3F)o2)n1N`, for which the IC50 was 10.6 µM (inactive).

`Cc1[nH]c2ccccc2c1C(=O)COC(=O)c1ccc([N+](=O)[O-])s1`: the pIC50 was 6.19.

Take `CCC(C)n1nnc2c(=O)oc3ccccc3c21` (stereo unspecified): the pIC50 was 5.25.

As for `CC1(O)CC(c2ccc(Cl)cc2)=NN1C(=O)c1ccc([N+](=O)[O-])cc1` (stereo unspecified), the pIC50 was 6.74.

`CCOC(=O)Cc1csc(NC(=O)c2c(O)c3ccccc3n(CCC(C)C)c2=O)n1`: the pIC50 is 5.75.

Regarding `Fc1ccc(-c2ccc(CNCc3ccccn3)o2)cc1Cl`, the pIC50 was 5.06.

For the compound `Cn1cccc1/C=N/NC(=O)c1ccncc1`, the pIC50 was 5.71.

For `CCN1C(=O)CC(N2CCC(c3nc4ccccc4[nH]3)CC2)C1=O` (stereo unspecified), the IC50 was 34.2 µM (inactive).

For the compound `Cc1cccc(OCC(O)Cn2c(=N)n(Cc3ccccc3)c3ccccc32)c1` (stereo unspecified), the IC50 is 20.4 µM (inactive).

Take `OC(COc1ccccc1Cl)CN1CCN(CC(O)COc2ccccc2Cl)CC1` (stereo unspecified): the IC50 was 19 µM (inactive).

In the case of `S=c1[nH]cnc2sc(-c3ccccc3)cc12`, the IC50 is 33.3 µM (inactive).

Consider `CSCCC(=O)N1CCCC(CNC(=O)c2ccc(-c3ccccc3)cc2)C1` (stereo unspecified), for which the IC50 is 17.9 µM (inactive).

Turning to `CC1COC(=O)C(NNc2ccc(Cl)c(Cl)c2)=N1` (stereo unspecified), the pIC50 was 5.06.

`Cc1nc(-c2ccc(C(F)(F)F)cc2)sc1C(=O)NN`: the IC50 was 23.5 µM (inactive).

In the case of `O=C(NCCC1=CCCCC1)c1ccc(Br)o1`, the pIC50 is 5.64.

For the compound `Cn1c(=O)c2c(=O)cc(NNC(=O)CC#N)[nH]c2n(C)c1=O`, the IC50 was 26.9 µM (inactive).

As to `COC(=O)/C(=C1/Oc2cc(C)oc(=O)c2S1)C(F)(F)F`, the pIC50 was over 7.00.

In the case of `Cc1cc(CC(C)C)n(-c2nc3ccccc3c(=O)n2OCC(N)=O)n1`, the IC50 was 16.1 µM (inactive).

Turning to `O=C(NNC(=O)c1cnccn1)c1ccc(Cl)c(Cl)c1`, the pIC50 was 5.49.

Take `Cc1cccc(-c2cc3nc(C)c(C)c(NCCCn4ccnc4)n3n2)c1`: the IC50 is 10.9 µM (inactive).

Regarding `CCC(=O)c1ccc(OC(=O)c2ccc(Br)o2)cc1`, the pIC50 is 5.01.

As for `Cc1cccc(NC(=O)CCSc2nnc(Cc3ccccc3)o2)c1`, the negative logarithm of the IC50 (pIC50) is 5.39.

In the case of `O=C1CCC/C(=N/Nc2ccc(Cl)cc2)C1`, the pIC50 is 5.43.

Turning to `CC(=O)c1ccc(OCC(=O)Nc2ccc3c(c2)CCC3)cc1`, the IC50 was 12.4 µM (inactive).

As for `COc1ccc(/C=N/NC(=O)c2ccncc2)cc1CN1CCOCC1`, the pIC50 was 5.36.

As for `O=C(Nc1ccc(Cl)cn1)C1COc2ccccc2O1` (stereo unspecified), the pIC50 was 5.48.

For `O=C(COc1ccc2ccccc2c1)N/N=C/c1ccccn1`, the pIC50 was 5.17.

Source of the values: PubChem BioAssay AID488890 (Southern Research Specialized Biocontainment Screening …, 2010).
